The values below come from patent US8778966B2, “Quinolinone derivatives as PARP and tank inhibitors” (Janssen Pharmaceutica, NV, priority 2007, dated 2014).

In one series the test system is PC3 cells. In words: EB1 Comet (microtubule disruption) assay. The series is classed as cell-based, human. The following applies: Homo sapiens, PC-3, 1 h, 1 hour treatment, read-out: EB1 pLAC (converted). In outline: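 PC3 human prostate cancer cells exposed to compound for 1 h at 37 °C (0.6% DMSO final), methanol-fixed, immunostained for Eb1 and imaged at 20×. Value is the lowest active concentration (LAC): the concentration at which Eb1 foci are absent in at least 50% of treated cells.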

The target of the next series is T1, TANK-2 enzyme (Homo sapiens, UniProt Q9H2K2).
T1 construct: made in house
T1 sequence (Q9H2K2 1-1166): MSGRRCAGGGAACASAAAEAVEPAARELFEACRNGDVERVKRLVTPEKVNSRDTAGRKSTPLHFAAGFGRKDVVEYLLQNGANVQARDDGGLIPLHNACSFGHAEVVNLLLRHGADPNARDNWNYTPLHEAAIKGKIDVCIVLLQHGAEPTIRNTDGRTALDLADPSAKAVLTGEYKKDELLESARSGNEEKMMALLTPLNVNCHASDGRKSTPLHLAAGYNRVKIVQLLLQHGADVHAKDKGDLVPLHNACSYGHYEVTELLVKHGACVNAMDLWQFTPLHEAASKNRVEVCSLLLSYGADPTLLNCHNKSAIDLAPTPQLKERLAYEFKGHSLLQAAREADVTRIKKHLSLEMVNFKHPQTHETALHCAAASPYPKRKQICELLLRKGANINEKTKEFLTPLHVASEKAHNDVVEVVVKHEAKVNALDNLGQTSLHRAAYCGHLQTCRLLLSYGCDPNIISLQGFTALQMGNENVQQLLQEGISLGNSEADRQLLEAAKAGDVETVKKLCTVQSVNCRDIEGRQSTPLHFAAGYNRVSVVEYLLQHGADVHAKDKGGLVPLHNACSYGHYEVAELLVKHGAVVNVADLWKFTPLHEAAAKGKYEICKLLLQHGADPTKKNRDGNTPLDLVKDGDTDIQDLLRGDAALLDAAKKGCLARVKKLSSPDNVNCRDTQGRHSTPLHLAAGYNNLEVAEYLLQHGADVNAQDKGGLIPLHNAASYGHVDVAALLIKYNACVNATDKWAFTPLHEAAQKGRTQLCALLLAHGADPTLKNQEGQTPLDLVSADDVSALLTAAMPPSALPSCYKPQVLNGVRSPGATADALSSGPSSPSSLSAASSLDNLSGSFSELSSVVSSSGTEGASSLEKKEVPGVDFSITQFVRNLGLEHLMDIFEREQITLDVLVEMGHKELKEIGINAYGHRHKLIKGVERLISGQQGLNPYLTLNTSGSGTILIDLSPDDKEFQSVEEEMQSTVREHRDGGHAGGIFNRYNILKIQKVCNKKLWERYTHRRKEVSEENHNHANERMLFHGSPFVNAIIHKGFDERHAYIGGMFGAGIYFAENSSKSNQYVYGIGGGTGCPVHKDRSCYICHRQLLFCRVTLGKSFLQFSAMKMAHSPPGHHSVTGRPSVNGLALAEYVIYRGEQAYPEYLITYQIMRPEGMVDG
The series is described as follows: In vitro Scintillation Proximity Assay (SPA) for TANK-2 inhibitory activity. It is filed as biochemical. The following applies: read-out: in vitro SPA assay TANK-2 pIC50 (converted). In outline: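 TANK-2 (8 μg/ml final) auto-poly(ADP-ribosyl)ation with [3H]-NAD+/NAD donor was run in Ni flash plates in Tris/HCl pH 7.4 buffer with DTT and MgCl2, 120 min at room temperature, then stopped with excess NAD and scintillation-counted. Blank-corrected cpm was expressed as % of enzyme control, and IC50 was linearly interpolated and reported as pIC50.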
(In a scintillation proximity assay essentially only radioactivity close to the scintillant gives light.)

By melting point is commonly meant the temperature of the solid-liquid transition. Take `CCc1cc2ccc(C(C)(C#N)CN(C)Cc3ccccc3)cc2[nH]c1=O` (stereo not drawn) [Compound 189]: the melting point is 136 °C. The minimal effective concentration in the series on PC3 cells was 1 µM. Also, the IC50 on TANK-2 enzyme was 2510 nM.
